Results from ChEMBL document CHEMBL1212878, “In vitro ADMET and physicochemical investigations of poly-N-methylated peptides designed to inhibit Abeta aggregation” (Bioorg Med Chem, 2010).
Converted amounts (≈) assume the structure as drawn. The source made the active and inactive calls. The rule behind the calls is not given here. Square brackets hold non-standard residues; d marks the D form. Peptide text beside a SMILES is read from it. NMeF = CN[C@@H](Cc1ccccc1)C(=O)O; NMeI = CC[C@H](C)[C@H](NC)C(=O)O; NMeL = CN[C@@H](CC(C)C)C(=O)O; NMeV = CN[C@H](C(=O)O)C(C)C; NMeA = CN[C@@H](C)C(=O)O; Sar = CNCC(=O)O

Key:
[1] = Cytotoxicity against rat 2/4/A1 cells assessed as cell viability up to 200 uM after 4 hrs by MTT assay; assay type: cell-based; details: read-out: Activity
[2] = Apparent permeability across rat 2/4/A1 cells in absence of pronase inhibitor; assay type: ADME, cell-based
[3] = Chemical stability of the compound assessed as compound remaining after enzymatic degradation after 24 hrs; assay type: physicochemical; details: read-out: Activity
[4] = Aqueous solubility of the compound at pH 7.4; assay type: physicochemical
[5] = Inhibition of Amyloid beta aggregation

Molecule | viability at 4 h [1] | Papp [2] | remaining at 24 h [3] | solubility [4] | inhibition [5]
CC[C@H](C)[C@H](NC(C)=O)C(=O)N(C)CC(=O)N[C@@H](CC(C)C)C(=O)N[C@@H](CCSC)C(=O)N[C@H](C(=O)N(C)CC(N)=O)C(C)C (Ac-I[Sar]LMV[Sar]-NH2) | 95% | 2.2 ×10⁻⁶ cm/s | 60% | > 2500 µM | 
CC(=O)N[C@@H](CCCCN)C(=O)N[C@@H](CC(C)C)C(=O)N(C)[C@H](C(=O)N[C@@H](Cc1ccccc1)C(=O)N(C)[C@@H](Cc1ccccc1)C(=O)N[C@@H](C)C(N)=O)C(C)C (Ac-KL[NMeV]F[NMeF]A-NH2) | 95% |  | 96% | 1580 µM (≈ 1260 µg/mL) | 
CC(=O)N[C@@H](CCCCN)C(=O)N(C)[C@@H](CC(C)C)C(=O)N[C@H](C(=O)N(C)[C@@H](Cc1ccccc1)C(=O)N[C@@H](Cc1ccccc1)C(=O)N(C)[C@@H](C)C(N)=O)C(C)C (Ac-K[NMeL]V[NMeF]F[NMeA]-NH2) | 95% |  | 94% | > 2500 µM | 
CC(=O)N[C@@H](CCCCN)C(=O)N(C)[C@@H](CC(C)C)C(=O)N(C)[C@H](C(=O)N(C)[C@@H](Cc1ccccc1)C(=O)N(C)[C@@H](Cc1ccccc1)C(=O)N(C)[C@@H](C)C(N)=O)C(C)C (Ac-K[NMeL][NMeV][NMeF][NMeF][NMeA]-NH2) | 95% | 2.3 ×10⁻⁶ cm/s | 98% | 899 µM (≈ 751 µg/mL) | 
CC[C@H](C)[C@@H](C(=O)NCC(=O)N(C)[C@@H](CC(C)C)C(=O)N[C@@H](CCSC)C(=O)N(C)[C@H](C(=O)NCC(N)=O)C(C)C)N(C)C(C)=O (Ac-[NMeI]G[NMeL]M[NMeV]G-NH2) | 95% | 1.6 ×10⁻⁶ cm/s | 94% | > 2500 µM | 
CC[C@H](C)[C@@H](C(=O)N(C)CC(=O)N(C)[C@@H](CC(C)C)C(=O)N[C@@H](CCSC)C(=O)N(C)[C@H](C(=O)N(C)CC(N)=O)C(C)C)N(C)C(C)=O (Ac-[NMeI][Sar][NMeL]M[NMeV][Sar]-NH2) | 95% | 1.4 ×10⁻⁶ cm/s | 100% | > 2500 µM | 
Ac-IGLMVG-NH2 | 95% | 3.1 ×10⁻⁶ cm/s | 20% | 3 µM | 
Ac-KLVFFA-NH2 | 95% | 2.8 ×10⁻⁶ cm/s | 36% | 32 µM | Active
